{"source": "paper PMC9596378", "about": "“Discovery and molecular basis of subtype-selective cyclophilin inhibitors” (Nature Chemical Biology, 2022)", "assay_in_all_cases": "Chymotrypsin coupled prolyl-isomerase assay", "key": {"CypD": {"target": "CypD (Homo sapiens, UniProt P30405)", "sequence (P30405 45-207)": "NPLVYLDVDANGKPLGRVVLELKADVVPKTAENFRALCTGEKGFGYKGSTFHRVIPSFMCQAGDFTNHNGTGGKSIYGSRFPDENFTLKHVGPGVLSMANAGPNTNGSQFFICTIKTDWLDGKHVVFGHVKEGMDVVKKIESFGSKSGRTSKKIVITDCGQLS", "settings": "for prolyl-isomerase activity (raw dose-response value): CypD"}, "CypG": {"target": "T1, CypG (Homo sapiens, UniProt Q13427)", "T1 construct": "PPIG (UniProtKB Entry Q13427: residues 1–179); His6 with thrombin site (pET28a LIC leader) (N); host or cells: E. coli BL21(DE3)", "T1 sequence (Q13427 1-179)": "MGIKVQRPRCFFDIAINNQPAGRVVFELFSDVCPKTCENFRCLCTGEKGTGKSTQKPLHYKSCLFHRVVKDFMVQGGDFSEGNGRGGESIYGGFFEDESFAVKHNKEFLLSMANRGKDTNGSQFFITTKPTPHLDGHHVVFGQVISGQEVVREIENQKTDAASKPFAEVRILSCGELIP", "assay_type": "biochemical", "settings": "for prolyl-isomerase activity (raw dose-response value): CypG, in s^-1", "outline": "(§1)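 5 nM Cyp, HEPES pH 7.3/NaCl/Triton buffer, 2–3 °C; cpd 5 min, chymotrypsin 25 µM 5 min, then Suc-AAPF-AMC 5 µM in LiCl/TFE. Kinetic fluorescence 330 s. Per-well rate constants, normalized, IC50 from nonlinear fit.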"}, "CypA": {"target": "T2, CypA (Homo sapiens, UniProt P62937)", "T2 construct": "PPIA (UniProtKB Entry P62937: residues 1–165); made in house; host or cells: E. coli BL21(DE3)", "T2 sequence (P62937 whole entry, the tested form may be a part)": "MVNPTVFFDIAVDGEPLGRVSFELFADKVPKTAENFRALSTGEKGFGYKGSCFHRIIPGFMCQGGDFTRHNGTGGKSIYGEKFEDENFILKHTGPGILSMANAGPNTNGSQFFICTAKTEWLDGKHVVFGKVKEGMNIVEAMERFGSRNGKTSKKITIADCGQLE", "assay_type": "biochemical", "settings": "for prolyl-isomerase activity (raw dose-response value): CypA, in s^-1", "outline": "as §1"}, "CypH": {"target": "T3, CypH (Homo sapiens, UniProt O43447)", "T3 construct": "PPIH (UniProtKB Entry O43447: residues 1–177); His6 with TEV site (2BT vector leader) (N); made in house; host or cells: E. coli BL21(DE3)", "T3 sequence (O43447 whole entry, the tested form may be a part)": "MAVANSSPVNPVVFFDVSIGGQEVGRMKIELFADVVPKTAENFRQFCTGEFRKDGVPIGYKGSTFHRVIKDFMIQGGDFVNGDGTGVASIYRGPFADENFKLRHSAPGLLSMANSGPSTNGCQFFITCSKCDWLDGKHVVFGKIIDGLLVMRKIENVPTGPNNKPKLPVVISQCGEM", "assay_type": "biochemical", "settings": "for prolyl-isomerase activity (raw dose-response value): CypH", "outline": "as §1"}, "PPIL1": {"target": "T4, PPIL1 (Homo sapiens, UniProt Q9Y3C6)", "T4 construct": "PPIL1 (UniProtKB Entry Q9Y3C6: residues 1–166); made in house; host or cells: E. coli BL21(DE3)", "T4 sequence (Q9Y3C6 1-166)": "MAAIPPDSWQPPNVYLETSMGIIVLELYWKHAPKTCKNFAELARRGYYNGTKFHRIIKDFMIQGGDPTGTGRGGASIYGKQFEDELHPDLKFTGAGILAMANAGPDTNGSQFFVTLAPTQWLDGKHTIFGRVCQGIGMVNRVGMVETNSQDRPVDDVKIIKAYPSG", "assay_type": "biochemical"}, "PPWD1": {"target": "T5, PPWD1 (Homo sapiens, UniProt Q96BP3)", "T5 construct": "PPWD1 (UniProtKB Entry Q96BP3: residues 473–646); host or cells: E. coli BL21(DE3)", "T5 sequence (Q96BP3 473-646)": "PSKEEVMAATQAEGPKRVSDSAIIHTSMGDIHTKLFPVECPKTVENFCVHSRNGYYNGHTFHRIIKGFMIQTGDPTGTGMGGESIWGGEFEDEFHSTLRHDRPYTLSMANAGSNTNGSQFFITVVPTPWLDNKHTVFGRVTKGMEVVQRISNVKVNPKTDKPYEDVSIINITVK", "assay_type": "biochemical", "settings": "for prolyl-isomerase activity (raw dose-response value): in s^-1"}}, "note": "Several values for one entry are separate records, joined by “and”; a condition that tells them apart may be missing. Identical values can stand only once.", "data": [{"smiles": "NCCOCCNC(=O)[C@@H]1CCNC(=O)/C=C/C(=O)N2CCC[C@](Cc3ccccc3)(C2)C(=O)N[C@@H](Cc2ccc(C(=O)c3ccccc3)cc2)C(=O)NCc2ccccc2CC(=O)N1", "note": "[Compound B1]", "values": [{"measurement": "IC50", "setting": "CypD", "result": 40, "unit": "nM"}, {"measurement": "prolyl-isomerase activity (raw dose-response value)", "setting": "CypD; dose 0.00244141 µM", "result": "0.1167 and 0.1009 and 0.132"}, {"measurement": "prolyl-isomerase activity (raw dose-response value)", "setting": "CypD; dose 0.00488281 µM", "result": "0.1171 and 0.1006 and 0.1105"}, {"measurement": "prolyl-isomerase activity (raw dose-response value)", "setting": "CypD; dose 0.00976562 µM", "result": "0.1045 and 0.1074 and 0.1165"}, {"measurement": "prolyl-isomerase activity (raw dose-response value)", "setting": "CypD; dose 0.0195312 µM", "result": "0.0977 and 0.1005 and 0.09149"}, {"measurement": "prolyl-isomerase activity (raw dose-response value)", "setting": "CypD; dose 0.0390625 µM", "result": "0.07882 and 0.0807 and 0.08119"}, {"measurement": "prolyl-isomerase activity (raw dose-response value)", "setting": "CypD; dose 0.078125 µM", "result": "0.05821 and 0.05418 and 0.05518"}, {"measurement": "prolyl-isomerase activity (raw dose-response value)", "setting": "CypD; dose 0.15625 µM", "result": "0.03845 and 0.03512 and 0.03854"}, {"measurement": "prolyl-isomerase activity (raw dose-response value)", "setting": "CypD; dose 0.3125 µM", "result": "0.0261 and 0.02523 and 0.02516"}, {"measurement": "prolyl-isomerase activity (raw dose-response value)", "setting": "CypD; dose 0.625 µM", "result": "0.0197 and 0.01788 and 0.01929"}, {"measurement": "prolyl-isomerase activity (raw dose-response value)", "setting": "CypD; dose 1.25 µM", "result": "0.01434 and 0.01347 and 0.01416"}, {"measurement": "prolyl-isomerase activity (raw dose-response value)", "setting": "CypD; dose 2.5 µM", "result": "0.009932 and 0.009111 and 0.008108"}, {"measurement": "prolyl-isomerase activity (raw dose-response value)", "setting": "CypG; dose 6.125 µM", "result": "0.0775 and 0.0774 and 0.07959"}, {"measurement": "prolyl-isomerase activity (raw dose-response value)", "setting": "CypG; dose 12.5 µM", "result": "0.07476 and 0.07359 and 0.07437"}, {"measurement": "prolyl-isomerase activity (raw dose-response value)", "setting": "CypG; dose 25 µM", "result": "0.06566 and 0.06625 and 0.06165"}, {"measurement": "prolyl-isomerase activity (raw dose-response value)", "setting": "CypG; dose 50 µM", "result": "0.05369 and 0.05651 and 0.05019"}, {"measurement": "prolyl-isomerase activity (raw dose-response value)", "setting": "CypG; dose 100 µM", "result": "0.03357 and 0.03853 and 0.03559"}, {"measurement": "IC50", "setting": "CypG; wild-type CypG, read-out: Wild-Type Cyclophilin Prolyl Isomerase Inhibition IC50 Values, CypG", "result": 70000, "unit": "nM"}, {"measurement": "prolyl-isomerase activity (raw dose-response value)", "setting": "CypA; dose 0.00114312 µM", "result": "0.07489 and 0.0818 and 0.1208"}, {"measurement": "prolyl-isomerase activity (raw dose-response value)", "setting": "CypA; dose 0.00342935 µM", "result": "0.107 and 0.09816 and 0.1302"}, {"measurement": "prolyl-isomerase activity (raw dose-response value)", "setting": "CypA; dose 0.0102881 µM", "result": "0.09417 and 0.08156 and 0.09814"}, {"measurement": "prolyl-isomerase activity (raw dose-response value)", "setting": "CypA; dose 0.0308642 µM", "result": "0.0846 and 0.08188 and 0.08679"}, {"measurement": "prolyl-isomerase activity (raw dose-response value)", "setting": "CypA; dose 0.0925926 µM", "result": "0.06244 and 0.05553 and 0.05478"}, {"measurement": "prolyl-isomerase activity (raw dose-response value)", "setting": "CypA; dose 0.277778 µM", "result": "0.04513 and 0.03865 and 0.03913"}, {"measurement": "prolyl-isomerase activity (raw dose-response value)", "setting": "CypA; dose 0.833333 µM", "result": "0.02761 and 0.02378 and 0.02924"}, {"measurement": "prolyl-isomerase activity (raw dose-response value)", "setting": "CypA; dose 2.5 µM", "result": "0.01703 and 0.01931 and 0.02247"}, {"measurement": "IC50", "setting": "CypA; wild-type CypA, read-out: Wild-Type Cyclophilin Prolyl Isomerase Inhibition IC50 Values, CypA", "result": 70, "unit": "nM"}, {"measurement": "prolyl-isomerase activity (raw dose-response value)", "setting": "CypH; dose 0.0228624 µM", "result": "0.05823 and 0.06198 and 0.07295"}, {"measurement": "prolyl-isomerase activity (raw dose-response value)", "setting": "CypH; dose 0.0685871 µM", "result": "0.0659 and 0.06156 and 0.06865"}, {"measurement": "prolyl-isomerase activity (raw dose-response value)", "setting": "CypH; dose 0.205761 µM", "result": "0.06027 and 0.0617 and 0.06475"}, {"measurement": "prolyl-isomerase activity (raw dose-response value)", "setting": "CypH; dose 0.617284 µM", "result": "0.05924 and 0.06278 and 0.06988"}, {"measurement": "prolyl-isomerase activity (raw dose-response value)", "setting": "CypH; dose 1.85185 µM", "result": "0.05446 and 0.06201 and 0.06094"}, {"measurement": "prolyl-isomerase activity (raw dose-response value)", "setting": "CypH; dose 5.55556 µM", "result": "0.05231 and 0.05643 and 0.05555"}, {"measurement": "prolyl-isomerase activity (raw dose-response value)", "setting": "CypH; dose 16.6667 µM", "result": "0.04539 and 0.04092 and 0.04707"}, {"measurement": "prolyl-isomerase activity (raw dose-response value)", "setting": "CypH; dose 50 µM", "result": "0.02854 and 0.02769 and 0.02761"}, {"measurement": "IC50", "setting": "CypH; wild-type CypH, read-out: Wild-Type Cyclophilin Prolyl Isomerase Inhibition IC50 Values, CypH", "result": 20000, "unit": "nM"}, {"measurement": "prolyl-isomerase activity (raw dose-response value)", "setting": "PPIL1; PPIL1, dose 0.0228624 µM", "result": "0.0901 and 0.08843 and 0.1022"}, {"measurement": "prolyl-isomerase activity (raw dose-response value)", "setting": "PPIL1; PPIL1, dose 0.0685871 µM", "result": "0.07658 and 0.07564 and 0.08071"}, {"measurement": "prolyl-isomerase activity (raw dose-response value)", "setting": "PPIL1; PPIL1, dose 0.205761 µM", "result": "0.05553 and 0.06081 and 0.06346"}, {"measurement": "prolyl-isomerase activity (raw dose-response value)", "setting": "PPIL1; PPIL1, dose 0.617284 µM", "result": "0.04442 and 0.03692 and 0.0407"}, {"measurement": "prolyl-isomerase activity (raw dose-response value)", "setting": "PPIL1; PPIL1, dose 1.85185 µM", "result": "0.02604 and 0.02534 and 0.024"}, {"measurement": "prolyl-isomerase activity (raw dose-response value)", "setting": "PPIL1; PPIL1, dose 5.55556 µM", "result": "0.01797 and 0.0175 and 0.01949"}, {"measurement": "prolyl-isomerase activity (raw dose-response value)", "setting": "PPIL1; PPIL1, dose 16.6667 µM", "result": "0.01539 and 0.0139 and 0.01238"}, {"measurement": "prolyl-isomerase activity (raw dose-response value)", "setting": "PPIL1; PPIL1, dose 50 µM", "result": "0.01281 and 0.01627 and 0.01081"}, {"measurement": "IC50", "setting": "PPIL1; wild-type PPIL1, read-out: Wild-Type Cyclophilin Prolyl Isomerase Inhibition IC50 Values, PPIL1", "result": 200, "unit": "nM"}, {"measurement": "prolyl-isomerase activity (raw dose-response value)", "setting": "PPWD1; PPWD1, dose 0.00244141 µM", "result": "0.05276 and 0.05431 and 0.05271"}, {"measurement": "prolyl-isomerase activity (raw dose-response value)", "setting": "PPWD1; PPWD1, dose 0.00488281 µM", "result": "0.05268 and 0.05435 and 0.05318"}, {"measurement": "prolyl-isomerase activity (raw dose-response value)", "setting": "PPWD1; PPWD1, dose 0.00976562 µM", "result": "0.05613 and 0.05695 and 0.05468"}, {"measurement": "prolyl-isomerase activity (raw dose-response value)", "setting": "PPWD1; PPWD1, dose 0.0195312 µM", "result": "0.05207 and 0.05349 and 0.04937"}, {"measurement": "prolyl-isomerase activity (raw dose-response value)", "setting": "PPWD1; PPWD1, dose 0.0390625 µM", "result": "0.05208 and 0.05238 and 0.05082"}, {"measurement": "prolyl-isomerase activity (raw dose-response value)", "setting": "PPWD1; PPWD1, dose 0.078125 µM", "result": "0.04871 and 0.04927 and 0.04631"}, {"measurement": "prolyl-isomerase activity (raw dose-response value)", "setting": "PPWD1; PPWD1, dose 0.15625 µM", "result": "0.04828 and 0.0525 and 0.04634"}, {"measurement": "prolyl-isomerase activity (raw dose-response value)", "setting": "PPWD1; PPWD1, dose 0.3125 µM", "result": "0.04787 and 0.04701 and 0.04264"}, {"measurement": "prolyl-isomerase activity (raw dose-response value)", "setting": "PPWD1; PPWD1, dose 0.625 µM", "result": "0.04382 and 0.04097 and 0.03416"}, {"measurement": "prolyl-isomerase activity (raw dose-response value)", "setting": "PPWD1; PPWD1, dose 1.25 µM", "result": "0.03009 and 0.02964 and 0.0254"}, {"measurement": "prolyl-isomerase activity (raw dose-response value)", "setting": "PPWD1; PPWD1, dose 2.5 µM", "result": "0.02331 and 0.02391 and 0.0225"}, {"measurement": "IC50", "setting": "PPWD1; wild-type PPWD1, read-out: Wild-Type Cyclophilin Prolyl Isomerase Inhibition IC50 Values, PPWD1", "result": 1400, "unit": "nM"}]}]}
